Literature values as cited in US20050215455A1, “Surfactants in powdered form that can be used in tablets or gelatin capsules; preparation process and compositions containing them” (priority 2004, published 2005).
Values after ≈ are worked out from the molar mass of the structure shown.

In the case of `Cn1c(=O)c2[nH]cnc2n(C)c1=O` [Theophylline], the Solubility in water is given as 8 µg/mL (≈ 44.4 µM).
